In patent US20230097580A1, “COMPOSITIONS AND METHODS FOR STIMULATING HAIR GROWTH” (Amplifica, Inc., priority 2020, published 2023):
Read-outs that look alike come from different tables or passages of the source.

Test system: dorsal skin of P53 mice
Conditions: for hair growth induction: summary of figures; for induction (of anagen / hair growth): 25, 50, 100 µg/mL injections, overall, two mice; for hair growth in injection spot: 3 µL on 3 consecutive days, 18 days after injection; for pigmentation at injection site: at P14
Source text: Follow up experiments included lower HA concentrations (below 250 .mu·g/mL). A small incision was done using a thin needle (insulin syringe) to facilitate injection. […] In FIGS. 5-8, when looking at the back of the mouse with the mouse's head at the top, the control (1% BSA) injection is top left, the 25 .mu·g/ml injection is top right, the 100 .mu·g/ml injection is bottom right, and the 50 .mu·g/ml injection is bottom left.
FIGS. 5 and 6 show representative images of two mice, each of which received injections of low molecular weight HA. FIGS. 7 and 8 show representative images of two mice, each of which received injections of high molecular weight HA.
For high molecular weight the injection site was monitored for 18 days for full anagen.

| Substance | hair growth induction (50 µg/mL) | hair growth induction (100 µg/mL) | induction (of anagen / hair growth) | hair growth in injection spot (FIG. 7 mouse, 50 µg/ml) | hair growth in injection spot (FIG. 7 mouse, 100 µg/ml) | hair growth in injection spot (FIG. 8 mouse, 25 µg/ml) | hair growth in injection spot (FIG. 8 mouse, 50 µg/ml) | pigmentation at injection site | anagen spot at injection site (25 µg/mL, mouse 2 (FIG. 6), only in one mouse) | hair growth in injection spot (FIG. 5 mouse, 25 µg/ml) | hair growth in injection spot (FIG. 5 mouse, 100 µg/ml) | hair growth in injection spot (FIG. 6 mouse, 25 µg/ml) | hair growth in injection spot (FIG. 6 mouse, 100 µg/ml) |
| --- | --- | --- | --- | --- | --- | --- | --- | --- | --- | --- | --- | --- | --- |
| hyaluronic acid [high molecular weight HA] | induces | induces | good induction | growth | growth | growth | growth | apparent |  |  |  |  |  |
| hyaluronic acid [intermediate weight HA] |  |  | no induction |  |  |  |  |  |  |  |  |  |  |
| hyaluronic acid [low molecular weight HA] |  | induced hair growth | good induction |  |  |  |  | apparent | nice anagen spot | growth | growth | growth | growth |
